Results published in PubChem BioAssay AID1845205 (Molecular Pharmacology Branch, DTP, NCI, 2023).
“And” between values parts separate entries of the source, which are not always exact repeats. Identical values can stand only once.

Tested on: MPNST multicellular tumor spheroids, viability % test/control
Test: Anticancer human tumor MPNST cell line growth inhibition;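 further: spheroids exposed to agents for seven days after three days of growth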;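 on viability, T/C: luminescence signal used as surrogate for viable cell amount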
Conditions: for viability, T/C: stronger effect = lower value; active means viability on the fitted dose curve at most 10% of control; inactive means the rest
Summary of the method: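 Complex spheroids of malignant cells with endothelial cells and mesenchymal stem cells; agents alone or combined, from near clinical Cmax (or 10 microM if unknown) down in half-log steps, 0.25% DMSO final.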

[1] = curve of first compound, second compound 30 pM
[2] = curve of first compound, second compound 94.9 pM
[3] = curve of first compound, second compound 0.0003 µM
[4] = curve of first compound, second compound 0.000949 µM
[5] = curve of first compound, second compound 0.003 µM
[6] = second compound 0.003 µM, first compound 0.0316 µM
[7] = second compound 0.003 µM, first compound 0.1 µM
[8] = second compound 0.003 µM, first compound 0.316 µM
[9] = second compound 0.003 µM, first compound 1 µM
[10] = second compound 0.003 µM, first compound 3.16 µM
[11] = second compound 0.003 µM, first compound 10 µM

O=C(c1cc(Cc2n[nH]c(=O)c3ccccc23)ccc1F)N1CCN(C(=O)C2CC2)CC1 + COc1cc2c(cc1O)CCNC21CSC2c3c(OC(C)=O)c(C)c4c(c3C(COC1=O)N1C(O)C3Cc5cc(C)c(OC)c(O)c5C(C21)N3C)OCO4
153 nM: IC50 [3]
5280 nM: IC50 [1]
inactive: viability, T/C (second compound 30 pM, first compound 0.0949 µM) 91.7% | viability, T/C (second compound 30 pM, first compound 0.3 µM) 79.2% | viability, T/C (second compound 30 pM, first compound 0.949 µM) 57.2% | viability, T/C (second compound 30 pM, first compound 3 µM) 72.7% | viability, T/C (second compound 30 pM, first compound 9.49 µM) 38.3% | viability, T/C (second compound 30 pM, first compound 30 µM) 25.2% | viability, T/C (second compound 94.9 pM, first compound 0.0949 µM) 50.1% | viability, T/C (second compound 94.9 pM, first compound 0.3 µM) 57.1% | viability, T/C (second compound 94.9 pM, first compound 0.949 µM) 70% | viability, T/C (second compound 94.9 pM, first compound 3 µM) 39.7% | viability, T/C (second compound 94.9 pM, first compound 9.49 µM) 29.7% | viability, T/C (second compound 94.9 pM, first compound 30 µM) 25.1% | viability, T/C (second compound 0.0003 µM, first compound 0.0949 µM) 53.5% | viability, T/C (second compound 0.0003 µM, first compound 0.3 µM) 44.5% | viability, T/C (second compound 0.0003 µM, first compound 0.949 µM) 40.3% | viability, T/C (second compound 0.0003 µM, first compound 3 µM) 34.5% | viability, T/C (second compound 0.0003 µM, first compound 9.49 µM) 28.6% | viability, T/C (second compound 0.0003 µM, first compound 30 µM) 25.3% | viability, T/C (second compound 0.000949 µM, first compound 0.0949 µM) 26.8% | viability, T/C (second compound 0.000949 µM, first compound 0.3 µM) 29.3% | viability, T/C (second compound 0.000949 µM, first compound 0.949 µM) 25.9% | viability, T/C (second compound 0.000949 µM, first compound 3 µM) 24.8% | viability, T/C (second compound 0.000949 µM, first compound 9.49 µM) 21.5% | viability, T/C (second compound 0.000949 µM, first compound 30 µM) 14.8%
active: viability, T/C (second compound 0.003 µM, first compound 0.0949 µM) 7.65% | viability, T/C (second compound 0.003 µM, first compound 0.3 µM) 7.5% | viability, T/C (second compound 0.003 µM, first compound 0.949 µM) 5.51% | viability, T/C (second compound 0.003 µM, first compound 3 µM) 6.23% | viability, T/C (second compound 0.003 µM, first compound 9.49 µM) 3.48% | viability, T/C (second compound 0.003 µM, first compound 30 µM) 2.13%
1620 nM: IC50 [2]
< 94.9 nM: IC50 [4] | IC50 [5]

CC1COCCN1c1cc(-c2ccnn2C)c2ccnc(-c3ccn[nH]3)c2n1 (stereo not drawn)
inactive: viability, T/C (compound 0.0316 µM) 54.6% and 70.5% and 65.8% | viability, T/C (compound 0.1 µM) 47.8% and 60% and 55.1% | viability, T/C (compound 0.316 µM) 37.7% and 46.4% and 41.8% | viability, T/C (compound 1 µM) 39.5% and 46.2% and 33.2% | viability, T/C (compound 3.16 µM) 28.1% and 34.2% and 28.3% | viability, T/C (compound 10 µM) 22.3% and 30.9% and 25%
65.9 nM and 315 nM and 154 nM: IC50 (curve of compound)

Cc1sc2c(c1C)C(c1ccc(Cl)cc1)=NC(CC(=O)Nc1ccc(O)cc1)c1nnc(C)n1-2 (stereo not drawn)
inactive: viability, T/C (compound 0.00949 µM) 124% and 109% and 90.5% | viability, T/C (compound 0.03 µM) 110% and 117% and 95.1% | viability, T/C (compound 0.0949 µM) 92.3% and 99.1% and 60.3% | viability, T/C (compound 0.3 µM) 63.9% and 75.2% and 36.5% | viability, T/C (compound 0.949 µM) 51.5% and 55.6% and 23.4% | viability, T/C (compound 3 µM) 46.8% and 52.1% and 25.7%

[2H]c1nc(C)nc([2H])c1-c1cc(NC[C@@H](C)c2cccc3c(C(=O)NC)ccnc23)ncn1 + COc1cc2c(cc1O)CCNC21CSC2c3c(OC(C)=O)c(C)c4c(c3C(COC1=O)N1C(O)C3Cc5cc(C)c(OC)c(O)c5C(C21)N3C)OCO4
< 31.6 nM: IC50 [4] | IC50 [5]
> 10000 nM: IC50 [1] | IC50 [2] | IC50 [3]
inactive: viability, T/C (second compound 30 pM, first compound 0.0316 µM) 83.5% | viability, T/C (second compound 30 pM, first compound 0.1 µM) 71.4% | viability, T/C (second compound 30 pM, first compound 0.316 µM) 73.3% | viability, T/C (second compound 30 pM, first compound 1 µM) 97.6% | viability, T/C (second compound 30 pM, first compound 3.16 µM) 72.7% | viability, T/C (second compound 30 pM, first compound 10 µM) 88.1% | viability, T/C (second compound 94.9 pM, first compound 0.0316 µM) 94.4% | viability, T/C (second compound 94.9 pM, first compound 0.1 µM) 83% | viability, T/C (second compound 94.9 pM, first compound 0.316 µM) 81.6% | viability, T/C (second compound 94.9 pM, first compound 1 µM) 103% | viability, T/C (second compound 94.9 pM, first compound 3.16 µM) 99.9% | viability, T/C (second compound 94.9 pM, first compound 10 µM) 78.3% | viability, T/C (second compound 0.0003 µM, first compound 0.0316 µM) 78% | viability, T/C (second compound 0.0003 µM, first compound 0.1 µM) 75.8% | viability, T/C (second compound 0.0003 µM, first compound 0.316 µM) 72.5% | viability, T/C (second compound 0.0003 µM, first compound 1 µM) 95.7% | viability, T/C (second compound 0.0003 µM, first compound 3.16 µM) 75.8% | viability, T/C (second compound 0.0003 µM, first compound 10 µM) 87% | viability, T/C (second compound 0.000949 µM, first compound 0.0316 µM) 48.4% | viability, T/C (second compound 0.000949 µM, first compound 0.1 µM) 40.6% | viability, T/C (second compound 0.000949 µM, first compound 0.316 µM) 42.7% | viability, T/C (second compound 0.000949 µM, first compound 1 µM) 43.1% | viability, T/C (second compound 0.000949 µM, first compound 3.16 µM) 42.3% | viability, T/C (second compound 0.000949 µM, first compound 10 µM) 42.9% | viability, T/C [6] 9.53% | viability, T/C [7] 12.7% | viability, T/C [8] 8.26% | viability, T/C [9] 12.5% | viability, T/C [10] 9.06% | viability, T/C [11] 8.35%

COc1ccc([C@@H](O)c2cc(-c3ncnc4cc(N5CCOCC5)ccc34)c(F)cc2Cl)nn1 + CC[C@@]1(O)C(=O)OCc2c1cc1n(c2=O)Cc2cc3c(CN(C)C)c(O)ccc3nc2-1
1170 nM: IC50 [5]
641 nM: IC50 (curve of first compound, second compound 0.00949 µM)
inactive: viability, T/C [6] 96.3% | viability, T/C [7] 77.6% | viability, T/C [8] 69.2% | viability, T/C [9] 55.6% | viability, T/C [10] 33.5% | viability, T/C [11] 14.6% | viability, T/C (second compound 0.00949 µM, first compound 0.0316 µM) 78.4% | viability, T/C (second compound 0.00949 µM, first compound 0.1 µM) 81.6% | viability, T/C (second compound 0.00949 µM, first compound 0.316 µM) 57.7% | viability, T/C (second compound 0.00949 µM, first compound 1 µM) 41% | viability, T/C (second compound 0.00949 µM, first compound 3.16 µM) 33% | viability, T/C (second compound 0.00949 µM, first compound 10 µM) 17.3% | viability, T/C (second compound 0.03 µM, first compound 0.0316 µM) 42.7% | viability, T/C (second compound 0.03 µM, first compound 0.1 µM) 42.9% | viability, T/C (second compound 0.03 µM, first compound 0.316 µM) 42.6% | viability, T/C (second compound 0.03 µM, first compound 1 µM) 36.1% | viability, T/C (second compound 0.03 µM, first compound 3.16 µM) 21% | viability, T/C (second compound 0.03 µM, first compound 10 µM) 16.4% | viability, T/C (second compound 0.0949 µM, first compound 0.0316 µM) 44.7% | viability, T/C (second compound 0.0949 µM, first compound 0.1 µM) 39.2% | viability, T/C (second compound 0.0949 µM, first compound 0.316 µM) 37.6% | viability, T/C (second compound 0.0949 µM, first compound 1 µM) 34.7% | viability, T/C (second compound 0.0949 µM, first compound 3.16 µM) 22.8% | viability, T/C (second compound 0.0949 µM, first compound 10 µM) 15.7% | viability, T/C (second compound 0.3 µM, first compound 0.0316 µM) 36.1% | viability, T/C (second compound 0.3 µM, first compound 0.1 µM) 39.7% | viability, T/C (second compound 0.3 µM, first compound 0.316 µM) 32.6% | viability, T/C (second compound 0.3 µM, first compound 1 µM) 27.6% | viability, T/C (second compound 0.3 µM, first compound 3.16 µM) 18% | viability, T/C (second compound 0.3 µM, first compound 10 µM) 10.3%
< 31.6 nM: IC50 (curve of first compound, second compound 0.03 µM) | IC50 (curve of first compound, second compound 0.0949 µM) | IC50 (curve of first compound, second compound 0.3 µM)
